Assay [1] addresses C-type lectin domain family 4 member K (Homo sapiens, UniProt Q9UJ71). In words: Inhibition of human Langerin overexpressed in human Raji cells incubated for 30 mins by flow cytometry. In kind it is cell-based.
The test system of assay [2] is PC-3. As to the kind of experiment: Antiproliferative activity against human PC-3 cells assessed as reduction in cell proliferation incubated for 72 hrs by SRB assay. The format is functional, cell-based. The settings on record: PC-3, 72 h. (In general: Sulforhodamine B stains cellular protein and so reports cell mass.)
Assay [3] has as its target T1, Galectin-1 (Homo sapiens, UniProt P09382). As to the kind of experiment: Binding affinity to human Gal-1 assessed as decrease in Gal-1 levels by ELISA. On the technique in general: In an ELISA, binding on a coated surface is turned into a signal by an enzyme label.
Assay [4] deals with DU-145. As to the kind of experiment: Antiproliferative activity against human DU-145 cells assessed as reduction in cell proliferation incubated for 72 hrs by SRB assay. In kind it is functional, cell-based. Conditions: DU-145, 72 h.
Assay [5] deals with HUVEC. In words: Antiproliferative activity against human HUVEC cells assessed as inhibition of basic fibroblast growth factor stimulated stimulated cell proliferation incubated for 72 hrs by CCK-8 assay. In kind it is functional, cell-based. In general terms: Tetrazolium assays rely on reduction of a dye to a coloured formazan, in cell work by metabolically active cells.
Assay [6] relates to MG-63. In words: Anticancer activity against human MG-63 cells assessed as reduction in cell viability incubated for 48 hrs by MTT assay. The format is functional, cell-based. The settings on record: MG-63, 48 h.
For assay [7], the system named is MDCK. As to the kind of experiment: Antimigratory activity against dog MDCK cells assessed as inhibition of cell migration preincubated for 0.5 hrs followed by wounding and measured after 24 hrs by wound closure assay. In kind it is functional, cell-based. Conditions: Canis lupus familiaris.
A short description of assay [8]: Anti-angiogenic activity in human MA148 cells xenografted in athymic nude mouse assesed as tumor growth inhibition at 10 mg/kg, sc weekly once for 28 days. Conditions: MA148, 672 h, time 28 day, read-out: TGI. In kind it is functional.
Assay [9] relates to A549. As to the kind of experiment: Anticancer activity against human A549 cells assessed as reduction in cell viability incubated for 48 hrs by MTT assay. In kind it is functional, cell-based. Conditions: A549, 48 h.
A short description of assay [10]: Anticancer activity against human MDA-MB-231 cells assessed as reduction in cell viability incubated for 48 hrs by MTT assay. The settings on record: MDA-MB-23, 48 h. The format is functional, cell-based.
Assay [11] concerns MCF7. As to the kind of experiment: Anticancer activity against human MCF7 cells assessed as reduction in cell viability incubated for 48 hrs by MTT assay. The format is functional, cell-based. The settings on record: MCF7, 48 h.
Assay [12] concerns NCI-H460. As to the kind of experiment: Anticancer activity against human NCI-H460 cells assessed as reduction in cell viability incubated for 48 hrs by MTT assay. The format is functional, cell-based. Conditions: NCI-H460, 48 h.
Assay [13] addresses T1, Galectin-1. As to the kind of experiment: Binding affinity to Gal-1 (unknown origin) by fluorescence spectroscopy.
The test system of assay [14] is SK-OV-3. In words: Anticancer activity against human SK-OV-3 cells assessed as reduction in cell viability and measured after 72 hrs by CellTiter-Glo reagent based assay. The format is functional. Conditions: SK-OV-3, 72 h.
Assay [15] addresses T2, P-selectin (Homo sapiens, UniProt P16109).
T2 sequence (P16109 whole entry): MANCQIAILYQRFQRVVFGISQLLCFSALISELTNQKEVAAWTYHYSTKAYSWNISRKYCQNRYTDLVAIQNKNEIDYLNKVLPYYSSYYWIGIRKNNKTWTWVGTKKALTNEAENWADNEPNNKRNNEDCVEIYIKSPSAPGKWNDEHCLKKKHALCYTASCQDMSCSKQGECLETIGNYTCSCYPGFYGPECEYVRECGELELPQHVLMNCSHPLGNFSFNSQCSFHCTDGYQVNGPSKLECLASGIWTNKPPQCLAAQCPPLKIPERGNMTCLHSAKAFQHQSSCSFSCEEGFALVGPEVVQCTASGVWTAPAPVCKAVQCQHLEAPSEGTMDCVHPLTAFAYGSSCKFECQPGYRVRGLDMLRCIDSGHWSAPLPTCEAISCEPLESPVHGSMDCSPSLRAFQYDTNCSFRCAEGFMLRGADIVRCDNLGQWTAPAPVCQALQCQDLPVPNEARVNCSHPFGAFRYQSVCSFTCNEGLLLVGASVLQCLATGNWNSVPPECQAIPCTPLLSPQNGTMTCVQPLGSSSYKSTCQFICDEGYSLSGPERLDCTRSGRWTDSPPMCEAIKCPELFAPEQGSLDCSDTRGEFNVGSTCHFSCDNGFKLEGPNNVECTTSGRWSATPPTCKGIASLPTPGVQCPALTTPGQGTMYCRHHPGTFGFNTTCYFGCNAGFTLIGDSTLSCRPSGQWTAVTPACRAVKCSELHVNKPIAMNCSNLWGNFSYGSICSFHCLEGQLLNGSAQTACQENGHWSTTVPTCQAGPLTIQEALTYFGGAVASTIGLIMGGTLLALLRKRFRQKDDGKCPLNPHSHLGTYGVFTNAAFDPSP
As to the kind of experiment: Inhibition of P-selectin (unknown origin) incubated for 30 mins by ELISA.

Assay [16] has as its target T1, Galectin-1. As to the kind of experiment: Binding affinity to Gal-1 (unknown origin) incubated for 30 mins by RP-HPLC analysis.

Broadly, the IC50 is the concentration needed to halve the response being measured.

Starred links: 1 amine or outer side, 2 acyl side, 3 side chain; linkers in the order of their positions; H or OH if unused. Non-standard residues stand in square brackets, D forms with d. Residues, ends and D or L forms follow the SMILES beside them. X2 = O=C(CCc1cccc2c1Cc1c(CCN[*:1])cccc1-2)[*:2]; X3 = O=C(CCc1cccc2c1oc1c(CCN[*:1])cccc12)[*:2]; Nva = CCC[C@H](N)C(=O)O

T1 sequence (P09382 whole entry): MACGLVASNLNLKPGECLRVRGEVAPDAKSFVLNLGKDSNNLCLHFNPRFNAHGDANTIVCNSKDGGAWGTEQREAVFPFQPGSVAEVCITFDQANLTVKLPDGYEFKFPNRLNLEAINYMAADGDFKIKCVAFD
Sequence of C-type lectin domain family 4 member K (Q9UJ71 whole entry, the tested form may be a part): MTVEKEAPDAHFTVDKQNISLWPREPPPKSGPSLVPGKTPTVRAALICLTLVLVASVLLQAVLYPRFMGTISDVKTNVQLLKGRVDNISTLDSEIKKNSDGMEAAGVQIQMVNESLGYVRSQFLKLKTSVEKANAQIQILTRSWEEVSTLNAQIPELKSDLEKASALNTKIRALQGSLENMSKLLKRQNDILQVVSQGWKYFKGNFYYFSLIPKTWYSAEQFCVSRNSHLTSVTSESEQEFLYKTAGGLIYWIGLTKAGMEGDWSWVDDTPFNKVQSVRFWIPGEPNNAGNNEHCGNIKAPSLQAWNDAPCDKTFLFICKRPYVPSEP

In assay [1], `CCOC(=O)c1cc(C(F)(F)F)n[nH]1` returned an IC50 of 580 µM.

As for `CCOC(=O)C1CCN(Cc2cc(=O)oc3cc(OCc4ccc([N+](=O)[O-])cc4)ccc23)CC1`, the IC50 in assay [2] was 7.45 µM; in [3], 100 µM; in assay [4], 8.95 µM.

Regarding `CCOC(=O)C1CCNC(=O)C1O` (centres undefined), in [1], 1190 µM corresponded to half-maximal inhibition (IC50).

For the compound `CC[C@H](C)[C@H](NC(=O)[C@H](C)NC(=O)CCc1cccc2c1oc1c(CCNC(=O)[C@H](CC(C)C)NC(=O)[C@H](CCCCN)NC(=O)[C@H](CCSC)NC(=O)[C@H](CCC(N)=O)NC(=O)[C@@H](NC(=O)[C@@H](N)CO)C(C)C)cccc12)C(=O)N[C@H](C(=O)N[C@@H](CCCCN)C(=O)N[C@@H](CC(C)C)C(=O)N[C@@H](CC(N)=O)C(=O)N[C@@H](C)C(=O)O)C(C)C` (H-SVQMKL[X3]AIVKLNA-OH), the IC50 in assay [5] was 5 µM.

Turning to `CC1CN(Cc2cc(=O)oc3cc(OCc4cn(Cc5ccc(Cl)cc5Cl)nn4)ccc23)CC(C)O1` (centres undefined), the concentration for half-maximal inhibition (IC50) in assay [6] worked out at 0.8 µM.

For `COc1c(C)c(OC)c2c(c1OCc1ccccc1)[C@H](COCc1ccccc1)N1[C@@H]3[C@H]4[C@H](C[C@H]([C@@H]1C#N)N4C)C(=O)N[C@H]23`, the concentration for half-maximal inhibition (IC50) in assay [7] was determined as 32.5 µM.

With H-ANIKLSVQMKLFKRHLKWKIIVKLNDGRELSLD-OH, the inhibition in vivo at 10 mg/kg in assay [8] was 80%.

Consider `Oc1cccc(-n2cc(COc3ccc(-c4nc5cc(Cl)ccc5n4Cc4ccccc4)cc3)nn2)c1`, for which the IC50 stood at 0.63 µM in assay [9], 0.94 µM in assay [10], 1.3 µM in [11] and 0.99 µM in assay [12].

For `O=C(O)c1cccnc1Nc1cccc(C(F)(F)F)c1` [NIFLUMIC ACID], in [1], the midpoint of inhibition, the IC50, lay at 590 µM.

With `COc1ccc2c(c1)c(C/C=C(/O)c1cc3ccccc3oc1=O)cn2Cc1cccc(Cl)c1`, the Ka in assay [13] was 6.6 10^5/M.

In turn, `CCN1CCN(CC(C)c2ccc(F)cc2)CC1` (centres undefined) yielded a concentration for half-maximal inhibition (IC50) in assay [1] of 1150 µM.

Take `COc1cccc2c1[C@H](CO)N1[C@@H](C#N)[C@H]3C[C@@H](C(=O)O)[C@H]([C@@H]1C2)N3C`: the half-maximal inhibitory concentration (IC50) in assay [7] was determined as 140 µM.

`CCC[C@H](NC(=O)[C@H](CCC(N)=O)NC(=O)[C@@H](NC(=O)[C@@H](N)CO)C(C)C)C(=O)N[C@@H](CCCCN)C(=O)N[C@@H](CC(C)C)C(=O)NCCc1cccc2c1Cc1c(CCC(=O)N[C@H](C(=O)N[C@H](C(=O)N[C@H](C(=O)N[C@@H](CCCCN)C(=O)N[C@@H](CC(C)C)C(=O)N[C@@H](CC(N)=O)C(=O)N[C@@H](C)C(=O)O)C(C)C)[C@@H](C)CC)[C@@H](C)CC)cccc1-2` (H-SVQ[Nva]KL[X2]IIVKLNA-OH): the IC50 in assay [5] came out at 10 µM.

Consider `CC(=O)OCCN(CCOC(C)=O)c1ccc(-c2nc3cc(C(CC(N)=O)NC(=O)C(N)Cc4ccc(Cl)c(Cl)c4)ccc3n2Cc2ccc(F)c(F)c2)cc1` (centres undefined), for which the IC50 in assay [14] stood at 15.7 µM.

Compound `Cc1n[nH]c(C)c1Cc1ccc(O)cc1` showed an IC50 in [1] of 1030 µM.

With `CCCCCCCCCCCCCCCCNC(=O)/C=C/c1ccc(-c2[nH]c(-c3ccc(C4=NNC(C=O)C4)cc3)nc2-c2ccc(/C=C/C(=O)O)cc2)cc1` (centres undefined), half-maximal inhibition in assay [15] (IC50) required 0.3 µM.

In [1], `CCOC(=O)c1sc(=O)[nH]c1C(F)(F)F` displayed an IC50 of 1060 µM.

For the compound `O=C(Nc1ccc(O)cc1)c1ccc(-c2nc3cc(Cl)ccc3n2Cc2ccccc2)cc1`, the IC50 in assay [11] was 7.01 µM. In [16], this compound yielded an Activity of 85.4%.

These data come from ChEMBL document CHEMBL5241084, “Non-carbohydrate strategies to inhibit lectin proteins with special emphasis on galectins” (Eur J Med Chem, 2021).
